Laboratory results from patent US20100210633A1, “CARBOXAMIDE COMPOUNDS AND THEIR USE” (EPIX Delaware, Inc., priority 2006, published 2010).

Target: CCR2 (Homo sapiens, UniProt P41597)
Experiment: calcium flux assay
Assay type: cell-based
Conditions: read-out: IC50 Ca++ flux
Text: The capacity of the compounds of the invention to antagonize CCR2 function can be determined using a suitable screen (e.g., high throughput assay). For example, an agent can be tested in an extracellular acidification assay, calcium flux assay, ligand binding assay or chemotaxis assay (see, for example, Hesselgesser et al., J Biol. Chem. 273(25):15687-15692 (1998), WO 00/05265 and WO 98/02151).

Chain of CCR2 (P41597 whole entry): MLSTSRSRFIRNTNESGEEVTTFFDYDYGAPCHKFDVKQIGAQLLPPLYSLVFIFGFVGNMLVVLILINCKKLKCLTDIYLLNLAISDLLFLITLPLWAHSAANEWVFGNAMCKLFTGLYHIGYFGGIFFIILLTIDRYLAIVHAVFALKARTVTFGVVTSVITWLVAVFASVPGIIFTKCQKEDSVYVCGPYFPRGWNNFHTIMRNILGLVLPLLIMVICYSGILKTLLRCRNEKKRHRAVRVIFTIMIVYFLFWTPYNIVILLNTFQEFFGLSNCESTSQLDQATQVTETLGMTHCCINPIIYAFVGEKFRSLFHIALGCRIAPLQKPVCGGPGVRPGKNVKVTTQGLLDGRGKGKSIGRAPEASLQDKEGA

| Compound | IC50 [nM] |
| --- | --- |
| CC(C)CC1(C(=O)NCc2cc(C(F)(F)F)cc(C(F)(F)F)c2)CCN(C2CCC(O)(c3ccc4c(c3)OCO4)CC2)CC1 (stereo not drawn) [Example 26, 1-(4-(Benzo[d][1,3]dioxol-5-yl)-4-hydroxycyclohexyl)-N-(3,5-bis(trifluoromethyl)benzyl)-4-isobutylpiperidine-4-carboxamide] | 200 to 1000 |
| CC(C)CC1(C(=O)NCc2cc(C(F)(F)F)cc(C(F)(F)F)c2)CCN(CC(=O)N2CCS(=O)(=O)CC2)CC1 [Example 53, N-(3,5-Bis(trifluoromethyl)benzyl)-4-isobutyl-1-(2-oxo-2-sulphonylmorpholinoethyl)piperidine-4-carboxamide] | > 1000 |
| CC(C)CC1(C(=O)NCc2cc(C(F)(F)F)cc(C(F)(F)F)c2)CCN(CCN2CCCCC2)CC1 [Example 18, N-(3,5-Bis(trifluoromethyl)benzyl)-4-isobutyl-1-(2-(piperidin-1-yl)ethyl)piperidine-4-carboxamide] | > 1000 |
| CC(C)CC1(C(=O)N2CCN(c3cccc(C(F)(F)F)c3)CC2)CCN(Cc2ccc3c(c2)OCO3)CC1 [Example 40, (1-(Benzo[d][1,3]dioxol-5-ylmethyl)-4-isobutylpiperidin-4-yl)(4-(3-(trifluoromethyl)phenyl)piperazin-1-yl)methanone] | > 1000 |
| CC(C)CC1(C(=O)N[C@H](C)c2cc(C(F)(F)F)cc(C(F)(F)F)c2)CCN(Cc2ccc3c(c2)OCO3)CC1 [Example 44, (R)-1-(Benzo[d][1,3]dioxol-5-ylmethyl)-N-(1-(3,5-bis(trifluoromethyl)phenyl)ethyl)-4-isobutylpiperidine-4-carboxamide] | > 1000 |
| CC(C)CC1(C(=O)N[C@@H](C)c2cc(C(F)(F)F)cc(C(F)(F)F)c2)CCN(Cc2ccc3c(c2)OCO3)CC1 [Example 45, (S)-1-(benzo[d][1,3]dioxol-5-ylmethyl)-N-(1-(3,5-bis(trifluoromethyl)phenyl)ethyl)-4-isobutylpiperidine-4-carboxamide] | > 1000 |
| O=C(NCCN1CCCC1)c1cc(CN2CCC(CC3CC3)(C(=O)NCc3cc(C(F)(F)F)cc(C(F)(F)F)c3)CC2)ccc1F [Example 59, N-(3,5-Bis(trifluoromethyl)benzyl)-4-(cyclopropylmethyl)-1-(4-fluoro-3-(2-(pyrrolidin-1-yl)ethylcarbamoyl)benzyl)piperidine-4-carboxamide] | > 1000 |
| CC(C)CC1(C(=O)NCc2cc(C(F)(F)F)cc(C(F)(F)F)c2)CCN(CC2CCOCC2)CC1 [Example 12, N-(3,5-Bis(trifluoromethyl)benzyl)-4-isobutyl-1-((tetrahydro-2H-pyran-4-yl)methyl)piperidine-4-carboxamide] | > 1000 |
| CC(C)CC1(C(=O)NCc2cc(C(F)(F)F)cc(C(F)(F)F)c2)CCN(c2ccccn2)CC1 [Example 19, N-(3,5-Bis(trifluoromethyl)benzyl)-4-isobutyl-1-(pyridin-2-yl)piperidine-4-carboxamide] | > 1000 |
| N#Cc1ccc(Oc2ccc(CN3CCC(CC4CC4)(C(=O)NCc4cc(C(F)(F)F)cc(C(F)(F)F)c4)CC3)cn2)cc1 [Example 67, N-(3,5-Bis(trifluoromethyl)benzyl)-1-((6-(4-cyanophenoxy)pyridin-3-yl)methyl)-4-(cyclopropylmethyl)piperidine-4-carboxamide] | 200 to 1000 |
| O=C(NCc1cc(C(F)(F)F)cc(C(F)(F)F)c1)C1(CC2CC2)CCN(CC2CCOCC2)C1 (stereo not drawn) [Example 81, N-(3,5-Bis(trifluoromethyl)benzyl)-3-(cyclopropylmethyl)-1-((tetrahydro-2H-pyran-4-yl)methyl)pyrrolidine-3-carboxamide] | < 200 |
| COCC1(C(=O)NCc2cc(C(F)(F)F)cc(C(F)(F)F)c2)CCN(CC2CCOCC2)CC1 [Example 11, N-(3,5-Bis(trifluoromethyl)benzyl)-1-((tetrahydro-2H-pyran-4-yl)methyl)-4-(methoxymethyl)piperidine-4-carboxamide] | > 1000 |
| COc1ccc(CN2CCC(CC(C)C)(C(=O)NCc3cc(C(F)(F)F)cc(C(F)(F)F)c3)CC2)cc1O [Example 30, N-(3,5-Bis(trifluoromethyl)benzyl)-1-(3-hydroxy-4-methoxybenzyl)-4-isobutylpiperidine-4-carboxamide] | < 200 |
| O=C(NCc1cc(C(F)(F)F)cc(C(F)(F)F)c1)C1(Cc2ccncc2)CCN(CC2CCOCC2)CC1 [Example 13, N-(3,5-Bis(trifluoromethyl)benzyl)-4-(pyridin-4-ylmethyl)-1-((tetrahydro-2H-pyran-4-yl)methyl)piperidine-4-carboxamide] | > 1000 |
| CC(C)(CN1CCC(CC2CC2)(C(=O)NCc2cc(C(F)(F)F)cc(C(F)(F)F)c2)CC1)N1CCOCC1 [Example 69, N-(3,5-Bis(trifluoromethyl)benzyl)-4-(cyclopropylmethyl)-1-(2-methyl-2-morpholinopropyl)piperidine-4-carboxamide] | 200 to 1000 |

Second part, the molecule after the results:

| IC50 [nM] | Compound |
| --- | --- |
| 200 to 1000 | COc1ccc(CN2CCC(CC3CC3)(C(=O)NCc3cc(C(F)(F)F)cc(C(F)(F)F)c3)C2)cc1F (stereo not drawn) [Example 80, N-(3,5-Bis(trifluoromethyl)benzyl)-3-(cyclopropylmethyl)-1-(3-fluoro-4-methoxybenzyl)pyrrolidine-3-carboxamide] |
| 200 to 1000 | O=C(O)c1cc(CN2CCC(CC3CC3)(C(=O)NCc3cc(C(F)(F)F)cc(C(F)(F)F)c3)C2)ccc1F (stereo not drawn) [Example 79, 5-((3-(3,5-Bis(trifluoromethyl)benzylcarbamoyl)-3-(cyclopropylmethyl)pyrrolidin-1-yl)methyl)-2-fluorobenzoic acid] |
| > 1000 | O=C(NCc1cc(C(F)(F)F)cc(C(F)(F)F)c1)C1(CC2CCOCC2)CCN(Cc2ccc3c(c2)OCO3)CC1 [Example 27, 1-(Benzo[d][1,3]dioxol-5-ylmethyl)-N-(3,5-bis(trifluoromethyl)benzyl)-4-((tetrahydro-2H-pyran-4-yl)methyl)piperidine-4-carboxamide] |
| 200 to 1000 | CC(C)CC1(C(=O)NCc2cc(C(F)(F)F)cc(C(F)(F)F)c2)CCN(Cc2ccc3c(c2)OCO3)CC1 [Example 21, 1-(Benzo[d][1,3]dioxol-5-ylmethyl)-N-(3,5-bis(trifluoromethyl)benzyl)-4-isobutylpiperidine-4-carboxamide] |
| < 200 | O=C(NCc1cc(C(F)(F)F)cc(C(F)(F)F)c1)C1(CC2CC2)CCN(Cc2ccc3c(c2)OC(F)(F)O3)CC1 [Example 50, N-(3,5-Bis(trifluoromethyl)benzyl)-4-(cyclopropylmethyl)-1-((2,2-difluorobenzo[d][1,3]dioxol-5-yl)methyl)piperidine-4-carboxamide] |
| 200 to 1000 | CCS(=O)(=O)NC(=O)c1cc(CN2CCC(CC3CC3)(C(=O)NCc3cc(C(F)(F)F)cc(C(F)(F)F)c3)CC2)ccc1F [Example 64, N-(3,5-Bis(trifluoromethyl)benzyl)-4-(cyclopropylmethyl)-1-(3-(ethylsulfonylcarbamoyl)-4-fluorobenzyl)piperidine-4-carboxamide] |
